Results taken from US11655268B2, “Nucleoside or nucleotide derivatives, and uses thereof” (ST Pharm Co., Ltd., priority 2018, dated 2023).
Read-outs that look alike come from different tables or passages of the source.

How the values were obtained:
in vitro [1] = conditions: human
DENV = test: Reduction in viral infection, dengue virus in Vero cells, immunofluorescence (4G2 antibody); type: cell-based, Dengue virus New Guinea C (NGC); conditions: 72 h, read-out: EC50 DENV
hCoV (229E) = test: microbe, parasite or virus in culture; type: cell-based, Human coronavirus hCoV 229E; conditions: MRC5, 72 h, read-out: EC50 hCoV (229E)
FIPV = test: Cytopathic effect reduction, FIPV in CRFK cells, MTT; type: cell-based, feline infectious peritonitis virus (FIPV); conditions: read-out: EC50 FIPV
in vitro [2] = conditions: cat
Influenza virus B/Lee/40 = test: Cytopathic effect reduction, influenza B Lee in MDCK cells, MTT; type: cell-based; conditions: for Selectivity index FluB Lee: CC50/EC50; for EC50: MDCK, 72 h, read-out: Anti-Flu activity EC50 FluB Lee
[3] = Cytotoxicity (CC50) in Vero cells; conditions: African green monkey, CC50 (DENV), Vero cells, DENV test
in vitro [4] = conditions: dog
hCoV (OC43) = test: Cytopathic effect reduction, hCoV OC43 in MRC-5 cells, MTT; type: cell-based, Human coronavirus hCoV OC43; conditions: Betacoronavirus 1, OC43, MRC5, 72 h, read-out: EC50 hCoV (OC43)
MERS-CoV = test: microbe, parasite or virus in culture; type: cell-based, MERS virus (MERS-CoV/KOR/KNIH/002_05_2015); conditions: Middle East respiratory syndrome-related coronavirus, Huh-7, 72 h, read-out: EC50 MERS-CoV
in vitro [5] = conditions: human; remark: listed apart in the source
[6] = read-out: CC50 (hCoV OC43), MRC-5 cells, day 3
[7] = MRC-5 cells, day 3 after infection
[8] = Alphacoronavirus 1, 72 h, CRFK cells, day 3 after infection

Structure (SMILES)	CC50 (in vitro [1])	EC50 (DENV)	CC50 (MRC-5 cells; [6])	EC50 (hCoV (229E); [7])	EC50 (FIPV; [8])	CC50 (in vitro [2])	Selectivity index FluB Lee (Influenza virus B/Lee/40)	EC50 (Influenza virus B/Lee/40)	CC50 at 3 days [3]	CC50 at 3 days (in vitro [4])	EC50 (hCoV (OC43); [7])	CC50 (MRC-5 cells; human)	EC50 (MERS-CoV)	EC50 (hCoV (229E))	EC50 (FIPV; Alphacoronavirus 1, CRFK, 72 h)	CC50 at 3 days (in vitro [5])	EC50 (hCoV (OC43))
O=C1CCCN1c1ccn([C@@H]2O[C@H](CO)[C@@H](O)C2(F)F)c(=O)n1 [Example 7]	> 100 µM	15.7 µM	> 100 µM	17.6 µM	77 µM	> 100 µM	>10.6	9.4 µM	> 100 µM	> 100 µM	> 100 µM	–	–	–	–	–	–
O=C(Nc1ccn([C@@H]2O[C@H](CO)[C@@H](O)C2(F)F)c(=O)n1)c1ccccn1 [Example 2, N-(1-((2R,4R,5R)-3,3-difluoro-4-hydroxy-5-(hydroxymethyl)tetrahydrofuran-2-yl)-2-oxo-1,2-dihydropyrimidin-4-yl)picolinamide]	> 100 µM	0.72 µM	–	–	–	> 100 µM	>136.4	2.2 µM	> 100 µM	> 100 µM	–	> 100 µM	1.8 µM	0.8 µM	9.1 µM	> 100 µM	> 100 µM
Cc1cccnc1C(=O)Nc1ccn([C@@H]2O[C@H](CO)[C@@H](O)C2(F)F)c(=O)n1 [Example 12, N-(1-((2R,4R,5R)-3,3-difluoro-4-hydroxy-5-(hydroxymethyl)tetrahydrofuran-2-yl)-2-oxo-1,2-dihydropyrimidin-4-yl)-3-methylpicolinamide]	> 100 µM	6.16 µM	–	12.2 µM	–	–	>2.0	49.1 µM	> 100 µM	> 100 µM	–	–	–	–	–	–	–
Cc1ccc(C(=O)Nc2ccn([C@@H]3O[C@H](CO)[C@@H](O)C3(F)F)c(=O)n2)nc1 [Example 10, N-(1-((2R,4R,5R)-3,3-difluoro-4-hydroxy-5-(hydroxymethyl)tetrahydrofuran-2-yl)-2-oxo-1,2-dihydropyrimidin-4-yl)-5-methylpicolinamide]	> 100 µM	2.53 µM	> 100 µM	7.4 µM	21 µM	92 µM	>10.2	9.8 µM	> 100 µM	> 100 µM	> 100 µM	–	–	–	–	–	–
O=C(Nc1ccn(C2O[C@H](CO)[C@@H](O)[C@H]2F)c(=O)n1)c1ccc(F)cn1 (stereo in doubt) [Example 35, 5-Fluoro-N-(1-((2S,3R,4R,5R)-3-fluoro-4-hydroxy-5-(hydroxymethyl)tetrahydrofuran-2-yl)-2-oxo-1,2-dihydropyrimidin-4-yl)picolinamide]	–	–	–	–	–	–	>2.7	37.4 µM	–	> 100 µM	–	–	> 100 µM	–	–	> 100 µM	–
Cc1cccc(C(=O)Nc2ccn([C@@H]3O[C@H](CO)[C@@H](O)C3(F)F)c(=O)n2)n1 [Example 13, N-(1-((2R,4R,5R)-3,3-difluoro-4-hydroxy-5-(hydroxymethyl)tetrahydrofuran-2-yl)-2-oxo-1,2-dihydropyrimidin-4-yl)-6-methylpicolinamide]	> 100 µM	1.98 µM	–	5.8 µM	–	–	>12.8	7.8 µM	> 100 µM	> 100 µM	–	–	–	–	–	–	–
Cc1ccc(C(=O)Nc2ccn(C3O[C@H](CO)[C@@H](O)[C@H]3F)c(=O)n2)cn1 (stereo in doubt) [Example 32, N-(1-((2S,3R,4R,5R)-3-fluoro-4-hydroxy-5-(hydroxymethyl)tetrahydrofuran-2-yl)-2-oxo-1,2-dihydropyrimidin-4-yl)-6-methylnicotinamide]	–	–	–	–	–	–	–	–	–	–	–	–	> 100 µM	–	–	> 100 µM	–
COc1ccc(C(=O)Nc2ccn([C@@H]3O[C@H](CO)[C@@H](O)C3(F)F)c(=O)n2)cn1 [Example 22, N-(1-((2R,4R,5R)-3,3-difluoro-4-hydroxy-5-(hydroxymethyl)tetrahydrofuran-2-yl)-2-oxo-1,2-dihydropyrimidin-4-yl)-6-methoxynicotinamide]	–	< 1.2 µM	–	–	–	–	>4.1	24.4 µM	< 1.2 µM	> 100 µM	–	–	–	–	–	–	–
O=C(Nc1ccn([C@@H]2O[C@H](CO)[C@@H](O)C2(F)F)c(=O)n1)c1ccc(F)cn1 [Example 9, N-(1-((2R,4R,5R)-3,3-difluoro-4-hydroxy-5-(hydroxymethyl)tetrahydrofuran-2-yl)-2-oxo-1,2-dihydropyrimidin-4-yl)-5-fluoropicolinamide]	> 100 µM	1.34 µM	> 100 µM	2.4 µM	18 µM	> 100 µM	>16.4	6.1 µM	> 100 µM	> 100 µM	> 100 µM	–	–	–	–	–	–
O=C(Nc1ccn([C@@H]2O[C@H](CO)[C@@H](O)C2(F)F)c(=O)n1)c1ccc(-c2ccccc2)cn1 [Example 25, N-(1-((2R,4R,5R)-3,3-difluoro-4-hydroxy-5-(hydroxymethyl)tetrahydrofuran-2-yl)-2-oxo-1,2-dihydropyrimidin-4-yl)-5-phenylpicolinamide]	–	< 1.2 µM	–	–	–	–	>16.4	6.1 µM	29.5 µM	> 100 µM	–	–	–	–	–	–	–
Cc1cncc(C(=O)Nc2ccn(C3O[C@H](CO)[C@@H](O)[C@H]3F)c(=O)n2)n1 (stereo in doubt) [Example 34, N-(1-((2S,3R,4R,5R)-3-fluoro-4-hydroxy-5-(hydroxymethyl)tetrahydrofuran-2-yl)-2-oxo-1,2-dihydropyrimidin-4-yl)-6-methylpyrazine-2-carboxamide]	–	–	–	–	–	–	>9.0	11.1 µM	–	> 100 µM	–	–	> 100 µM	–	–	> 100 µM	–
O=C(Nc1ccn([C@@H]2O[C@H](CO)[C@@H](O)C2(F)F)c(=O)n1)c1ccc([N+](=O)[O-])cn1 [Example 19, N-(1-((2R,4R,5R)-3,3-difluoro-4-hydroxy-5-(hydroxymethyl)tetrahydrofuran-2-yl)-2-oxo-1,2-dihydropyrimidin-4-yl)-5-nitropicolinamide]	–	< 1.2 µM	–	–	–	–	>83.3	< 1.2 µM	< 1.2 µM	> 100 µM	–	–	–	–	–	–	–
O=C(Nc1ccn([C@@H]2O[C@H](CO)[C@@H](O)C2(F)F)c(=O)n1)c1cccc(-c2ccccc2)n1 [Example 17, N-(1-((2R,4R,5R)-3,3-difluoro-4-hydroxy-5-(hydroxymethyl)tetrahydrofuran-2-yl)-2-oxo-1,2-dihydropyrimidin-4-yl)-6-phenylpicolinamide]	–	< 1.2 µM	–	–	–	–	>41.7	2.4 µM	58.9 µM	> 100 µM	–	–	–	–	–	–	–
O=C(Nc1ccn([C@@H]2O[C@H](CO)[C@@H](O)C2(F)F)c(=O)n1)c1ccc(Cl)nc1 [Example 23, 6-Chloro-N-(1-((2R,4R,5R)-3,3-difluoro-4-hydroxy-5-(hydroxymethyl)tetrahydrofuran-2-yl)-2-oxo-1,2-dihydropyrimidin-4-yl)nicotinamide]	–	< 1.2 µM	–	–	–	–	>16.1	6.2 µM	< 1.2 µM	> 100 µM	–	–	–	–	–	–	–
